Assay results taken from PubChem BioAssay (NCI).
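Compound exposure: 48 hours, 5 concentrations, 96-well plates. The concentration for full growth arrest is given as TGI.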

Key:
Test in all cases: inhibition of tumour cell growth, NCI panel, 48 h
[1] = tested on: HL-60(TB) leukemia
[2] = tested on: M14 melanoma
[3] = tested on: KM12 colon
[4] = tested on: UACC-257 melanoma
[5] = tested on: SK-MEL-5 melanoma
[6] = tested on: OVCAR-3 ovarian
[7] = tested on: LXFL 529 NSCLC
[8] = tested on: HCT-15 colon
[9] = tested on: DMS 114 small cell lung
[10] = tested on: DLD-1 colon
[11] = tested on: CCRF-CEM leukemia
[12] = tested on: OVCAR-4 ovarian
[13] = tested on: M19-MEL melanoma
[14] = tested on: A498 renal
[15] = tested on: NCI-H460 lung
[16] = tested on: SK-MEL-2 melanoma
[17] = tested on: RXF 393 renal
[18] = tested on: SN12C renal
[19] = tested on: RPMI-8226 leukemia
[20] = tested on: A549 NSCLC
[21] = tested on: HCT-116 colon
[22] = tested on: UO-31 renal
[23] = tested on: HOP-18 NSCLC
[24] = tested on: SNB-75 CNS
[25] = tested on: K-562 leukemia
[26] = tested on: SNB-78 CNS
[27] = tested on: ACHN renal
[28] = tested on: SK-MEL-28 melanoma
[29] = tested on: RXF-631 renal
[30] = tested on: OVCAR-8 ovarian
[31] = tested on: SK-OV-3 ovarian
[32] = tested on: SW-620 colon
[33] = tested on: NCI-H522 lung
[34] = tested on: SF-268 CNS
[35] = tested on: IGROV1 ovarian
[36] = tested on: SR leukemia
[37] = tested on: MOLT-4 leukemia
[38] = tested on: HCC-2998 colon
[39] = tested on: SF-539 CNS
[40] = tested on: CAKI-1 renal
[41] = tested on: UACC-62 melanoma
[42] = tested on: COLO 205 colon
[43] = tested on: HOP-62 NSCLC
[44] = tested on: DMS 273 small cell lung
[45] = tested on: MALME-3M melanoma
[46] = tested on: SNB-19 CNS
[47] = tested on: U251 CNS
[48] = tested on: 786-0 renal
[49] = tested on: TK-10 renal
[50] = tested on: KM20L2 colon
[51] = tested on: NCI-H226 lung
[52] = tested on: NCI-H23 lung
[53] = tested on: LOX IMVI melanoma
[54] = tested on: HOP-92 NSCLC
[55] = tested on: XF 498 CNS
[56] = tested on: HT29 colon
[57] = tested on: EKVX NSCLC
[58] = tested on: SF-295 CNS

Measured: TGI

COC(=O)CC1CCN(C#N)CC1CC[N+](=O)[O-] (stereo not given)
> 100 µM: [1] | [2] | [3] | [4] | [5] | [6] | [7] | [8] | [9] | [10] | [11] | [12] | [13] | [14] | [15] | [16] | [17] | [18] | [19] | [20] | [21] | [22] | [23] | [24] | [25] | [26] | [27] | [28] | [29] | [30] | [31] | [32] | [33] | [34] | [35] | [36] | [37] | [38] | [39] | [40] | [41] | [42] | [43] | [44] | [45] | [46] | [47] | [48] | [49] | [50] | [51]

O=C(O)CCc1coc2ccc(O)cc12
> 100 µM: [1] | [2] | [4] | [5] | [6] | [7] | [8] | [9] | [10] | [11] | [12] | [13] | [14] | [15] | [17] | [18] | [19] | [20] | [21] | [52] | [23] | [24] | [25] | [26] | [53] | [27] | [28] | [30] | [31] | [54] | [32] | [35] | [37] | [38] | [39] | [55] | [40] | [56] | [41] | [42] | [43] | [44] | [46] | [47] | [48] | [49] | [57] | [50] | [58]
